Experimental data published in ChEMBL document CHEMBL1158470, “9-(Arenethenyl)purines as dual Src/Abl kinase inhibitors targeting the inactive conformation: design, synthesis, and biological evaluation” (J Med Chem, 2009).

Columns and labels:
[1] = Antiproliferative activity against mouse BA/F3 cells after 3 days by MTS assay; conditions: Mus musculus, BaF3, 72 h
K562 = assay: Antiproliferative activity against human K562 cells after 3 days by MTS assay
[2] = Antiproliferative activity against mouse BA/F3 cells expressing Bcr-Abl T315I mutant after 3 days by MTS assay; conditions: BaF3, 72 h
[3] = target: Tyrosine-protein kinase ABL1 (Homo sapiens, UniProt P00519)
Chain of Tyrosine-protein kinase ABL1 (P00519 whole entry): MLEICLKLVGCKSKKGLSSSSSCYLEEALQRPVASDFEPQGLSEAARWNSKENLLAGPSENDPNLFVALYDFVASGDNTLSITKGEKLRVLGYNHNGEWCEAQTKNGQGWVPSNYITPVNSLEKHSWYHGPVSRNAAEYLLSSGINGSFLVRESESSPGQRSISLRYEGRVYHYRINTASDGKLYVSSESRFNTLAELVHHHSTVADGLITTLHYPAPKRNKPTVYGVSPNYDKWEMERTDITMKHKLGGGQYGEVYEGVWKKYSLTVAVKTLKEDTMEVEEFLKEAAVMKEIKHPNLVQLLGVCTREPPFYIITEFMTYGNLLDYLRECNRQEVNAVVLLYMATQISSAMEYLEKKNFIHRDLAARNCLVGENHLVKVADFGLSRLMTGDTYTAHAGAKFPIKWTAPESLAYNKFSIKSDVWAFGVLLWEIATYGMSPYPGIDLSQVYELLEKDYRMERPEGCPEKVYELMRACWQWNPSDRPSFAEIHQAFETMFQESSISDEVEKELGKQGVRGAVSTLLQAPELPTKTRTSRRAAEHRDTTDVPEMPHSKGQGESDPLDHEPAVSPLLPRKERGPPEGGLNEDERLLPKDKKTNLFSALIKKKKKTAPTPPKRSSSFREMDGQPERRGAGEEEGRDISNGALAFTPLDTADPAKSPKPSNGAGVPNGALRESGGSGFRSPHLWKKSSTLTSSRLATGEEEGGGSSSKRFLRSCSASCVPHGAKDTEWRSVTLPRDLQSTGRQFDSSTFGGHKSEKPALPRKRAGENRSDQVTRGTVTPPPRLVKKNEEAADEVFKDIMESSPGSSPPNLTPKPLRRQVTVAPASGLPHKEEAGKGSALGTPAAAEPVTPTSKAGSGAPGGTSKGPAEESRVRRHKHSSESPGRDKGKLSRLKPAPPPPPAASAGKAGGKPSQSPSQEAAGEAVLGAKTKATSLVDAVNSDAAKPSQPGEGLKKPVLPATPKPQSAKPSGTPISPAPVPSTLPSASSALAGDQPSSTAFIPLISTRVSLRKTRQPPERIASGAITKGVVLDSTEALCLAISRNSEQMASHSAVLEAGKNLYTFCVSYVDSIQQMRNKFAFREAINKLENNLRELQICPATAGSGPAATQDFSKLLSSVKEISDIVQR
Description: Inhibition of wild type human Abl kinase by TR-FRET assay

[4] = Volume of distribution in CD rat at 5 mg/kg, iv; format: ADME, organism-based; set-up: dose 5 mg/kg, route intravenous; conditions: in vivo
[5] = Cmax in CD rat at 15 mg/kg, po; format: ADME, organism-based; set-up: dose 15 mg/kg, route oral; conditions: in vivo
[6] = Oral bioavailability in CD rat at 15 mg/kg; format: ADME, organism-based; conditions: in vivo
[7] = Tmax in CD rat at 15 mg/kg, po; format: ADME, organism-based; set-up: dose 15 mg/kg, route oral; conditions: in vivo
[8] = Half life in CD rat at 5 mg/kg, iv; format: ADME, organism-based; set-up: dose 5 mg/kg, route intravenous; conditions: in vivo
[9] = Clearance in CD rat at 5 mg/kg, iv; format: ADME, organism-based; set-up: dose 5 mg/kg, route intravenous; conditions: in vivo
[10] = AUC (0 to 24 hrs) in CD rat at 15 mg/kg, po; format: ADME, organism-based; set-up: time < 24 hr, dose 15 mg/kg, route oral; conditions: plasma
[11] = target: Proto-oncogene tyrosine-protein kinase Src (Homo sapiens, UniProt P12931)
Chain of Proto-oncogene tyrosine-protein kinase Src (P12931 2-536 limits assumed): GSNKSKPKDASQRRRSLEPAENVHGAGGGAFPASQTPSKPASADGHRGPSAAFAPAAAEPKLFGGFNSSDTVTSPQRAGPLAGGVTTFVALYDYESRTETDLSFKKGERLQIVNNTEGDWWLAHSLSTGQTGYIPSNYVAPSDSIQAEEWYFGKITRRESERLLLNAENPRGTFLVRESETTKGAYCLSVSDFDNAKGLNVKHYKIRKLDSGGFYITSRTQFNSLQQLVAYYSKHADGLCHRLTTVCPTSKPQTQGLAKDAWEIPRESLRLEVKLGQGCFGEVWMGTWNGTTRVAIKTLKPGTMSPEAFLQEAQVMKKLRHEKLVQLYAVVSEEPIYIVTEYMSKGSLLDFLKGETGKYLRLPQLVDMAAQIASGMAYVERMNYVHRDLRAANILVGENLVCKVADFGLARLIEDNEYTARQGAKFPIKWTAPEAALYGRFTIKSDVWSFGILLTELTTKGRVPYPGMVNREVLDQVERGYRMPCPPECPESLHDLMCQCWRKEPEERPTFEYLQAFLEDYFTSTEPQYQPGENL
Description: Inhibition of human Src kinase by TR-FRET assay

[12] = Antiproliferative activity against mouse BA/F3 cells expressing wild type Bcr-Abl after 3 days by MTS assay
[13] = Antiproliferative activity against mouse BA/F3 cells expressing Bcr-Abl L248R mutant after 3 days by MTS assay; conditions: BaF3, 72 h
[14] = Antiproliferative activity against mouse BA/F3 cells expressing Bcr-Abl Y253H mutant after 3 days by MTS assay; conditions: BaF3, 72 h
[15] = AUC (0 to 24 hrs) in mouse at 10 mg/kg, po; format: ADME, organism-based; set-up: time < 24 hr, dose 10 mg/kg, route oral; conditions: plasma
[16] = Antiproliferative activity against mouse BA/F3 cells expressing Bcr-Abl E255K mutant after 3 days by MTS assay; conditions: BaF3, 72 h
[17] = Tmax in mouse at 10 mg/kg, po; format: ADME, organism-based; set-up: dose 10 mg/kg, route oral; conditions: in vivo
[18] = Cmax in mouse at 10 mg/kg, po; format: ADME, organism-based; set-up: dose 10 mg/kg, route oral; conditions: in vivo
[19] = Antiproliferative activity against mouse BA/F3 cells expressing Bcr-Abl Q252H mutant after 3 days by MTS assay; conditions: BaF3, 72 h
[20] = Antiproliferative activity against mouse BA/F3 cells expressing Bcr-Abl G250E mutant after 3 days by MTS assay; conditions: BaF3, 72 h

| Compound | IC50 [1] [nM] | IC50 (K562; Homo sapiens, K562, 72 h) [nM] | Vd [4] [L/kg] | Cmax [5] [ng/mL] | bioavailability [6] [%] | Tmax [7] [h] | half-life [8] [h] | clearance [9] [mL/min/kg] | AUC(0-t) at 24 h [10] [ng·h/mL] | further results |
| --- | --- | --- | --- | --- | --- | --- | --- | --- | --- | --- |
| Cc1ccc(C(=O)Nc2cc(-n3ccnc3)cc(C(F)(F)F)c2)cc1/C=C/n1cnc2c(NC3CC3)ncnc21 | 7120 | 5.4 | – | – | – | – | – | – | – | IC50 [2]: 298 nM |
| Cc1ccc(C(=O)Nc2cc(C(F)(F)F)ccc2F)cc1/C=C/n1cnc2c(NC3CC3)ncnc21 | 7660 | 68 | – | – | – | – | – | – | – | IC50 [3]: 236 nM |
| Cc1ccc(C(=O)Nc2cc(C(C)(C)C)on2)cc1/C=C/n1cnc2c(NC3CC3)ncnc21 | > 10000 | 15 | 4.87 | 1040 | 45 | 1 | 3.7 | 15 | 7540 | – |
| Cc1ccc(NC(=O)Nc2cccc(C(F)(F)F)c2)cc1/C=C/n1cnc2c(NC3CC3)ncnc21 | – | > 1000 | – | – | – | – | – | – | – | IC50 [11]: 517 nM |
| Cc1ccc(NC(=O)c2cccc(C(F)(F)F)c2)cc1/C=C/n1cnc2c(Nc3ccncn3)ncnc21 | 2070 | 62 | – | – | – | – | – | – | – | – |
| CNc1ncnc2c1ncn2/C=C/c1cc(NC(=O)c2cccc(C(F)(F)F)c2)ccc1C | > 10000 | 67 | 1.6 | – | – | – | 2.95 | 6.33 | – | – |
| Cc1ccc(NC(=O)c2cccc(C(F)(F)F)c2)cc1/C=C/n1cnc2c(Nc3ccccn3)ncnc21 | 6260 | 181 | – | – | – | – | – | – | – | IC50 [3]: 243 nM; IC50 [11]: 201 nM |
| Cc1ccc(NC(=O)c2cccc(C(F)(F)F)c2)cc1/C=C/n1cnc2c(Nc3cccnc3)ncnc21 | > 10000 | 2.7 | 1.7 | 387 | 11 | 2 | 2.4 | 8.17 | 3310 | IC50 ([12]; baf3): Not Active |
| Cc1cn(-c2cc(NC(=O)c3ccc(C)c(/C=C/n4cnc5cncnc54)c3)cc(C(F)(F)F)c2)cn1 | – | – | – | – | – | – | – | – | – | IC50 ([12]; Mus musculus, BaF3, 72 h): 7 nM |
| Cc1ccc(C(=O)Nc2cccc(C(C)C)c2)cc1/C=C/n1cnc2c(NC3CC3)ncnc21 | 8320 | 63 | – | – | – | – | – | – | – | – |
| Cc1ccc(C(=O)Nc2cccc(C(C)(C)C)c2)cc1/C=C/n1cnc2c(NC3CC3)ncnc21 | 2550 | 22 | 5.31 | 100 | 3.5 | 1 | 2.1 | 29.8 | 297 | – |
| Cc1cn(-c2cc(NC(=O)c3ccc(C)c(/C=C/n4cnc5c(NC6CC6)ncnc54)c3)cc(C(F)(F)F)c2)cn1 | 6460 | 4.3 | 0.78 | 1750 | 7 | 2 | 8.3 | 1 | 17200 | IC50 [13]: 64 nM; IC50 [14]: 44 nM; IC50 [2]: 422 nM; AUC(0-t) at 24 h [15]: 6930 ng·h/mL; IC50 [16]: 24 nM; Tmax [17]: 1 h; Cmax [18]: 1020 ng/mL; IC50 [19]: 42 nM; IC50 [20]: 63 nM |
| CNc1ncnc2c1ncn2CCc1cc(NC(=O)c2cccc(C(F)(F)F)c2)ccc1C | 9680 | – | – | – | – | – | – | – | – | IC50 (K562; k562): Not Active; IC50 [11]: 300 nM |
